Measurements as given in patent US20260224494A1, “MILVEXIAN PHARMACEUTICAL COMPOSITIONS” (BRISTOL-MYERS SQUIBB COMPANY, priority 2023, published 2026).
≈ marks a conversion by molar mass, not a printed value. Where two headings read alike, the source gives them in different places.

Columns and labels:
[1] = Solubility of milvexian forms in organic solvent systems; type: physicochemical
Protocol: While heating of the feed solution is a viable solution for production, it is a more complex set-up and with risk of crashing out dissolved solids in case of cold spots and plant safety. Various solvent systems (See Table 11 below) were investigated with primary focus on solvent systems containing DCM due to its low boiling point and excellent solubilization properties.
Based on the data it was determined that 70/30 w/w % DCM/MeOH and 80/20 w/w % were promising solvent mixtures and more accurate solubility determination was carried out for 80/20 w/w % DCM/MeOH for both FORM A and P1.Acetone solvate at 20° C. with the results shown in Table 12 below.
P1.Acetone was the preferred crystalline form of milvexian for physical stability and manufacturability reasons. Based on the above, 80/20 w/w % DCM/MeOH solvent system was selected for development due to highly increase solubility over the 90/10 w/w % Acetone/Water solvent system.

[2] = Acetone/Water 90:10 w/w, cited from earlier work

**Q.** For `C[C@@H]1CCC[C@H](n2cnc(-c3cc(Cl)ccc3-n3cc(Cl)nn3)cc2=O)c2cc(ccn2)-c2c(cnn2C(F)F)NC1=O`, which solubility ([1]; 80/20 w/w % DCM/MeOH, 20 °C, organic solvent or mixture, 80/20 w/w % DCM/MeOH, read-out: solubility) is on record?
**A.** 230 mg/mL (≈ 367 mM)

**Q.** With `C[C@@H]1CCC[C@H](n2cnc(-c3cc(Cl)ccc3-n3cc(Cl)nn3)cc2=O)c2cc(ccn2)-c2c(cnn2C(F)F)NC1=O` [Milvexian, (5R,9S)-9-(4-(5-chloro-2-(4-chloro-1H-1,2,3-triazol-1-yl)phenyl)-6-oxopyrimidin-1(6H)-yl)-21-(difluoromethvl)-5-methyl-21H-3-aza-1(4,2)-pyridina-2(5,4)-pyrazolacyclononaphan-4-one] as the molecule, how does the solubility ([1]; 30/70 DCM/MeOH, 20 °C, organic solvent or mixture, 30/70 DCM/MeOH, temperature 20, read-out: Solubility in mg/mL solution) read?
**A.** 16 mg/mL (≈ 25.5 mM)

**Q.** And the solubility ([1]; 30/70 DCM/MeOH, 40 °C, organic solvent or mixture, 30/70 DCM/MeOH, temperature 40, read-out: Solubility in mg/mL solution)?
**A.** 26 mg/mL (≈ 41.5 mM)

**Q.** And the Solubility description ([1]; 30/70 DCM/MeOH, temperature 20)?
**A.** Sparingly soluble

**Q.** And the Solubility description ([1]; 30/70 DCM/MeOH, temperature 40)?
**A.** Sparingly soluble

**Q.** What about the solubility ([1]; 40/60 DCM/MeOH, 20 °C, organic solvent or mixture, 40/60 DCM/MeOH, temperature 20, read-out: Solubility in mg/mL solution) of the same molecule?
**A.** 29 mg/mL (≈ 46.3 mM)

**Q.** And the solubility ([1]; 40/60 DCM/MeOH, 40 °C, organic solvent or mixture, 40/60 DCM/MeOH, temperature 40, read-out: Solubility in mg/mL solution)?
**A.** 44 mg/mL (≈ 70.2 mM)

**Q.** What about the Solubility description ([1]; 40/60 DCM/MeOH, temperature 20) of the same molecule?
**A.** Sparingly soluble

**Q.** And the Solubility description ([1]; 40/60 DCM/MeOH, temperature 40)?
**A.** Soluble

**Q.** And the solubility ([1]; 50/50 DCM/MeOH, 20 °C, organic solvent or mixture, 50/50 DCM/MeOH, temperature 20, read-out: Solubility in mg/mL solution)?
**A.** 58 mg/mL (≈ 92.6 mM)

**Q.** What about the solubility ([1]; 50/50 DCM/MeOH, 40 °C, organic solvent or mixture, 50/50 DCM/MeOH, temperature 40, read-out: Solubility in mg/mL solution) of the same molecule?
**A.** 77 mg/mL (≈ 123 mM)

**Q.** And the Solubility description ([1]; 50/50 DCM/MeOH, temperature 20)?
**A.** Soluble

**Q.** What about the Solubility description ([1]; 50/50 DCM/MeOH, temperature 40) of the same molecule?
**A.** Soluble

**Q.** What about the solubility ([1]; 60/40 DCM/MeOH, 20 °C, organic solvent or mixture, 60/40 DCM/MeOH, temperature 20, read-out: Solubility in mg/mL solution) of the same molecule?
**A.** 120 mg/mL (≈ 192 mM)

**Q.** And the solubility ([1]; 60/40 DCM/MeOH, 40 °C, organic solvent or mixture, 60/40 DCM/MeOH, temperature 40, read-out: Solubility in mg/mL solution)?
**A.** > 200 mg/mL

**Q.** And the Solubility description ([1]; 60/40 DCM/MeOH, temperature 20)?
**A.** Freely Soluble

**Q.** And the Solubility description ([1]; 60/40 DCM/MeOH, temperature 40)?
**A.** Freely Soluble

**Q.** And the solubility ([1]; 70/30 DCM/MeOH, 20 °C, organic solvent or mixture, 70/30 DCM/MeOH, temperature 20, read-out: Solubility in mg/mL solution)?
**A.** > 200 mg/mL

**Q.** And the solubility ([1]; 70/30 DCM/MeOH, 40 °C, organic solvent or mixture, 70/30 DCM/MeOH, temperature 40, read-out: Solubility in mg/mL solution)?
**A.** > 200 mg/mL

**Q.** What about the Solubility description ([1]; 70/30 DCM/MeOH, temperature 20) of the same molecule?
**A.** Freely Soluble

**Q.** What about the Solubility description ([1]; 70/30 DCM/MeOH, temperature 40) of the same molecule?
**A.** Freely Soluble

**Q.** And the solubility ([1]; 80/20 DCM/MeOH, 20 °C, organic solvent or mixture, 80/20 DCM/MeOH, temperature 20, read-out: Solubility in mg/mL solution)?
**A.** > 200 mg/mL

**Q.** What about the solubility ([1]; 80/20 DCM/MeOH, 40 °C, organic solvent or mixture, 80/20 DCM/MeOH, temperature 40, read-out: Solubility in mg/mL solution) of the same molecule?
**A.** > 200 mg/mL

**Q.** And the Solubility description ([1]; 80/20 DCM/MeOH, temperature 20)?
**A.** Freely Soluble

**Q.** And the Solubility description ([1]; 80/20 DCM/MeOH, temperature 40)?
**A.** Freely Soluble

**Q.** What about the solubility ([1]; 90/10 DCM/MeOH, 20 °C, organic solvent or mixture, 90/10 DCM/MeOH, temperature 20, read-out: Solubility in mg/mL solution) of the same molecule?
**A.** > 200 mg/mL

**Q.** And the solubility ([1]; 90/10 DCM/MeOH, 40 °C, organic solvent or mixture, 90/10 DCM/MeOH, temperature 40, read-out: Solubility in mg/mL solution)?
**A.** > 200 mg/mL

**Q.** And the Solubility description ([1]; 90/10 DCM/MeOH, temperature 20)?
**A.** Freely Soluble

**Q.** And the Solubility description ([1]; 90/10 DCM/MeOH, temperature 40)?
**A.** Freely Soluble

**Q.** What about the solubility ([1]; 100% DCM, 20 °C, organic solvent or mixture, 100% DCM, temperature 20, read-out: Solubility in mg/mL solution) of the same molecule?
**A.** 29 mg/mL (≈ 46.3 mM)

**Q.** What about the solubility ([1]; 100% DCM, 40 °C, organic solvent or mixture, 100% DCM, temperature 40, read-out: Solubility in mg/mL solution) of the same molecule?
**A.** 51 mg/mL (≈ 81.4 mM)

**Q.** And the Solubility description ([1]; 100% DCM, temperature 20)?
**A.** Sparingly soluble

**Q.** And the Solubility description ([1]; 100% DCM, temperature 40)?
**A.** Soluble

**Q.** And the solubility ([1]; 100% MeOH, 20 °C, organic solvent or mixture, 100% MeOH, temperature 20, read-out: Solubility in mg/mL solution)?
**A.** 4.2 mg/mL (≈ 6.7 mM)

**Q.** What about the solubility ([1]; 100% MeOH, 40 °C, organic solvent or mixture, 100% MeOH, temperature 40, read-out: Solubility in mg/mL solution) of the same molecule?
**A.** 6.6 mg/mL (≈ 10.5 mM)

**Q.** What about the Solubility description ([1]; 100% MeOH, temperature 20) of the same molecule?
**A.** Slightly soluble

**Q.** What about the Solubility description ([1]; 100% MeOH, temperature 40) of the same molecule?
**A.** Slightly soluble

**Q.** And the solubility ([1]; acetone/water 90/10 w/w %, 20 °C, organic solvent or mixture, acetone/water (90/10 w/w %), room temperature, read-out: solubility)?
**A.** 36 mg/mL (≈ 57.5 mM)

**Q.** What about the solubility ([1]; acetone/water 90/10 w/w %, 49 °C, organic solvent or mixture, acetone/water (90/10 w/w %), 49° C., read-out: solubility) of the same molecule?
**A.** 70 mg/mL (≈ 112 mM)

**Q.** And the solubility ([2]; 20° C.)?
**A.** 36 mg/mL (≈ 57.5 mM)

**Q.** And the solubility ([2]; 50° C.)?
**A.** 70 mg/mL (≈ 112 mM)

**Q.** What does the source list for `C[C@@H]1CCC[C@H](n2cnc(-c3cc(Cl)ccc3-n3cc(Cl)nn3)cc2=O)c2cc(ccn2)-c2c(cnn2C(F)F)NC1=O` [FORM A]?
**A.** solubility at 24 hours ([1]; 70/30 DCM/MeOH, 20 °C, organic solvent or mixture, thermodynamic from solid, 70/30 DCM/MeOH, 20° C., 24 hours, read-out: Solubility in mg/mL solution 24 hours): 221 mg/mL (≈ 353 mM); Solubility in mg/mL solution 2 weeks ([1]; 70/30 DCM/MeOH, 20° C.): 204 mg/mL (≈ 326 mM); Solubility in mg/mL solution 2 weeks ([1]; 80/20 DCM/MeOH, 20° C.): 255 mg/mL (≈ 407 mM); Solubility in mg/mL solution 24 hours ([1]; 80/20 DCM/MeOH, 20° C., 24 hours): 272 mg/mL (≈ 434 mM); solubility ([1]; 80/20 w/w % DCM/MeOH, listed as crystalline Form A of milvexian free form): 255 mg/mL (≈ 407 mM); solubility ([1]; DCM/MeOH solvent systems of Table 12, 20 °C, organic solvent or mixture, DCM/MeOH solvent systems of Table 12, read-out: solubilities achievable): > 220 mg/mL
